pIC50: −log10 of the molar value.
Columns and labels:
[1] = molecular target: T1, Cytochrome P450 1A2 (Homo sapiens, UniProt P05177); assay: Inhibition of human recombinant CYP1A2 using 7-ethoxyresorufin as substrate incubated under dark condition for 45 mins in presence of NADPH by EROD fluorescence assay; type: ADME
T1 sequence (P05177 whole entry): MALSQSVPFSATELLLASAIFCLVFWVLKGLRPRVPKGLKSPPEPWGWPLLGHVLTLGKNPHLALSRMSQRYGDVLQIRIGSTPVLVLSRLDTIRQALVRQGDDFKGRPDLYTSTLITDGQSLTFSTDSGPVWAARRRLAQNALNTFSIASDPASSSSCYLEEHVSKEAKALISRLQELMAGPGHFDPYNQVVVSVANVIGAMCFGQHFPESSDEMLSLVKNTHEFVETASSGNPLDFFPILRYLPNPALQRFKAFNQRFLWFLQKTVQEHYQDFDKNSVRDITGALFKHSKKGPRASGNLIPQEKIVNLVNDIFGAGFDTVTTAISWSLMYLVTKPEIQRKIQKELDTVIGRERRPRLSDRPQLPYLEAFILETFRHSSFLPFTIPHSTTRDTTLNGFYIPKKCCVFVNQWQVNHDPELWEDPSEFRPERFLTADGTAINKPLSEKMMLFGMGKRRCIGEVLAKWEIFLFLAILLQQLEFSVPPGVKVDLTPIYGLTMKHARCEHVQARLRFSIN

[2] = molecular target: T2, Cytochrome P450 1B1 (Homo sapiens, UniProt Q16678); assay: Inhibition of human recombinant CYP1B1 using 7-ethoxyresorufin as substrate incubated under dark condition for 30 mins in presence of NADPH by EROD fluorescence assay; type: ADME
T2 sequence (Q16678 whole entry): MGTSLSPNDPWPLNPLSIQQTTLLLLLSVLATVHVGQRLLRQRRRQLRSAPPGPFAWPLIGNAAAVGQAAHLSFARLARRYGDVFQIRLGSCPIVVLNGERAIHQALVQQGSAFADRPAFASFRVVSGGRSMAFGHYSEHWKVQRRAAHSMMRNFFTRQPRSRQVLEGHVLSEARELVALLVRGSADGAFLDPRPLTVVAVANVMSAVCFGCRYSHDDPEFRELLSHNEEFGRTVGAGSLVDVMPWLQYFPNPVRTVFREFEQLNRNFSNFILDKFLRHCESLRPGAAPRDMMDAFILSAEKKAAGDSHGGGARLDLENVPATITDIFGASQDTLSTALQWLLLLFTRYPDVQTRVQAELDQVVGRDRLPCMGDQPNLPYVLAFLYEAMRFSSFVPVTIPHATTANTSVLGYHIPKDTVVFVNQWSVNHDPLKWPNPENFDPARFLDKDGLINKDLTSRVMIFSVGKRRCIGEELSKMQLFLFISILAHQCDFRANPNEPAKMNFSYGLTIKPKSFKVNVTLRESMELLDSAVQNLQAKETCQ

[3] = species: Homo sapiens; assay: Selectivity index, ratio of IC50 for human recombinant CYP1A1 to IC50 for human recombinant CYP1B1 using 7-ethoxyresorufin as substrate
[4] = molecular target: T3, Cytochrome P450 1A1 (Homo sapiens, UniProt P04798); assay: Inhibition of human recombinant CYP1A1 using 7-ethoxyresorufin as substrate incubated under dark condition for 15 mins in presence of NADPH by EROD fluorescence assay; type: ADME
T3 sequence (P04798 whole entry): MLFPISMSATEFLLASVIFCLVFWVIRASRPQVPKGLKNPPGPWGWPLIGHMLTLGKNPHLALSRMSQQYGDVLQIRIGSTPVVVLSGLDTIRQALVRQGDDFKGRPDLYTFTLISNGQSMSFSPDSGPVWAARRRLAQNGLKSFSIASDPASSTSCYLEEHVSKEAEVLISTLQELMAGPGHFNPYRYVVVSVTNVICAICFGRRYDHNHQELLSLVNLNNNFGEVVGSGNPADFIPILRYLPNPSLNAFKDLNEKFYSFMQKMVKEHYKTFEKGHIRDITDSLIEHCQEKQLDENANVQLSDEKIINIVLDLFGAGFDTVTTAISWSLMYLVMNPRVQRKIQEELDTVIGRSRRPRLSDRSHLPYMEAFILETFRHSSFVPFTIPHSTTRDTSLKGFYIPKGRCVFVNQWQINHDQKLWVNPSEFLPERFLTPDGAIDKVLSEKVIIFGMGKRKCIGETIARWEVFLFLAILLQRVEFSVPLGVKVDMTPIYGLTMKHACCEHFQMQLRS

[5] = species: Homo sapiens; assay: Selectivity index, ratio of IC50 for human recombinant CYP1A2 to IC50 for human recombinant CYP1B1 using 7-ethoxyresorufin as substrate

Row | Structure (SMILES) | pIC50 [1] | pIC50 [2] | Ratio IC50 [3] | pIC50 [4] | Ratio IC50 [5]
1 | Cc1sc(C(=O)Nc2ccc(OC(F)F)cc2)nc1-c1cccc(F)c1 | 5.57 | 8.52 | 61.9 | 6.73 | 889
2 | O=C(Nc1ccc(Cl)cc1Cl)c1nc(-c2cccc(F)c2)cs1 | 5.62 | 8.72 | 77.4 | 6.83 | 1240
3 | COc1cc(NC(=O)c2nc(-c3cccc(F)c3)cs2)cc(OC)c1 | 5.14 | 8.14 | 65.1 | 6.32 | 993
4 | O=C(Nc1ccc(Cl)cc1Cl)c1nc(-c2ccccc2F)cs1 | 6.85 | 8.65 | 88.3 | 6.71 | 63.6
5 | O=C(Nc1cc(Cl)cc(Cl)c1)c1nc(-c2ccc(Cl)cc2)cs1 | 5.88 | 8.84 | 266 | 6.41 | 912
6 | O=C(Nc1cc(Cl)cc(Cl)c1)c1nc(-c2ccc(-c3ccccc3)cc2)cs1 | 4.90 | 5.71 | 4.8 | 5.03 | 6.5
7 | Cc1sc(C(=O)Nc2cc(Cl)cc(Cl)c2)nc1-c1ccc(F)cc1 | 5.44 | 8.90 | 55.4 | 7.16 | 2920
8 | COc1cc(NC(=O)c2nc(-c3ccccc3F)cs2)cc(OC)c1 | 5.84 | 7.78 | 21.5 | 6.45 | 86.5
9 | O=C(Nc1cc(Cl)cc(Cl)c1)c1nc(-c2ccnc(Cl)c2)cs1 | < 4.00 | 8.37 | 16 | 7.17 | > 23400
10 | COc1ccc(-c2csc(C(=O)Nc3cc(Cl)cc(Cl)c3)n2)cc1 | 4.77 | 6.66 | > 454 | < 4.00 | 77.6
11 | Nc1ccc(-c2csc(C(=O)Nc3cc(Cl)cc(Cl)c3)n2)cc1 | 5.08 | 6.85 | 6.8 | 6.02 | 58.7
12 | CCc1sc(C(=O)Nc2cc(Cl)cc(Cl)c2)nc1-c1ccc(F)cc1 | < 4.00 | 7.00 | 2.2 | 6.65 | > 990
13 | N#Cc1ccc(-c2csc(C(=O)Nc3cc(Cl)cc(Cl)c3)n2)cn1 | 5.26 | 7.94 | 6.2 | 7.14 | 481
14 | O=C(Nc1cc(Cl)cc(Cl)c1)c1nc(-c2cncc(Cl)c2)cs1 | 8.01 | 8.75 | 6.5 | 7.94 | 5.5
15 | CC(C)c1ccc(-c2csc(C(=O)Nc3cc(Cl)cc(Cl)c3)n2)cc1 | 5.02 | 6.56 | 1.7 | 6.34 | 34.5
16 | O=C(Nc1cc(Cl)cc(Cl)c1)c1nc(-c2ccc(I)cc2)cs1 | 5.80 | 7.65 | > 445 | < 5.00 | 71
17 | Cc1sc(C(=O)Nc2ccc(OC(F)F)cc2)nc1-c1cccc(Cl)c1 | < 4.00 | 8.51 | 41.7 | 6.89 | > 32600
18 | O=C(Nc1cc(Cl)cc(Cl)c1)c1nc(-c2ccc(Br)cc2)cs1 | 5.36 | 7.58 | > 3790 | < 4.00 | 167
19 | O=C(Nc1cc(Cl)cc(Cl)c1)c1nc(-c2ccccc2F)cs1 | 6.75 | 8.92 | 107 | 6.89 | 147
20 | Cc1sc(C(=O)Nc2cc(Cl)cc(Cl)c2)nc1-c1cccc(F)c1 | 5.85 | 9.06 | 138 | 6.92 | 1600

Second part, the compound after the results:

Row | pIC50 [1] | pIC50 [2] | Ratio IC50 [3] | pIC50 [4] | Ratio IC50 [5] | Structure (SMILES)
21 | 6.09 | 9.33 | 122 | 7.24 | 1730 | O=C(Nc1ccc(OC(F)F)cc1)c1nc(-c2ccc(F)cc2)cs1
22 | 6.48 | 9.05 | 65.1 | 7.23 | 368 | O=C(Nc1ccc(OC(F)F)cc1)c1nc(-c2ccc(Cl)cc2)cs1
23 | 5.33 | 8.98 | 53.5 | 7.25 | 4500 | O=C(Nc1ccc(OC(F)F)cc1)c1nc(-c2cccc(Cl)c2)cs1
24 | < 5.00 | 8.73 | 71.8 | 6.87 | > 5320 | Cc1sc(C(=O)Nc2ccc(C(F)(F)F)cc2)nc1-c1cccc(Cl)c1
25 | 5.24 | 8.66 | 20.2 | 7.35 | 2640 | NC(=O)c1cccc(-c2csc(C(=O)Nc3ccc(C(F)(F)F)cc3)n2)c1
26 | 6.17 | 9.28 | 99.6 | 7.28 | 1270 | O=C(Nc1ccc(C(F)(F)F)cc1)c1nc(-c2cccc(Cl)c2)cs1
27 | 6.61 | 9.31 | 142 | 7.16 | 510 | O=C(Nc1ccc(C(F)(F)F)cc1)c1nc(-c2ccc(Cl)cc2)cs1
28 | 6.49 | 8.84 | 104 | 6.82 | 225 | O=C(Nc1ccc(I)cc1)c1nc(-c2cccc(F)c2)cs1
29 | < 4.00 | 8.53 | 7.3 | 7.67 | > 34100 | N#Cc1cccc(-c2csc(C(=O)Nc3ccc(C(F)(F)F)cc3)n2)c1
30 | < 4.30 | 8.04 | 7.8 | 7.15 | > 5550 | N#Cc1cccc(-c2csc(C(=O)Nc3ccc(OC(F)F)cc3)n2)c1
31 | < 5.00 | 9.08 | 170 | 6.85 | > 12100 | NC(=O)c1ccc(-c2csc(C(=O)Nc3ccc(C(F)(F)F)cc3)n2)cc1
32 | 5.33 | 8.60 | 105 | 6.58 | 1880 | O=C(Nc1cc(Cl)cc(Cl)c1)c1nc(-c2cccc(F)c2)cs1
33 | 5.30 | 8.70 | 32 | 7.19 | 2490 | NC(=O)c1cccc(-c2csc(C(=O)Nc3ccc(OC(F)F)cc3)n2)c1
34 | 5.63 | 8.67 | 79.2 | 6.78 | 1100 | Cc1sc(C(=O)Nc2ccc(C(F)(F)F)cc2)nc1-c1cccc(F)c1
35 | 6.67 | 9.03 | 437 | 6.39 | 230 | O=C(Nc1ccc(F)cc1F)c1nc(-c2ccc(F)cc2)cs1
36 | < 5.00 | 8.10 | > 12500 | < 4.00 | > 1250 | NC(=O)c1ccc(-c2csc(C(=O)Nc3cc(Cl)cc(Cl)c3)n2)cc1
37 | 6.36 | 7.57 | 22.1 | 6.22 | 16.3 | O=C(Nc1ccccc1)c1nc(-c2ccccc2)cs1

Source: ChEMBL document CHEMBL6182948 (J Med Chem, 2025)
